Reference: patent US8389557B2, “Triazole derivatives useful as Axl inhibitors” (Rigel Pharmaceuticals, Inc., priority 2005, dated 2013)

Biological target: T1, Axl (Homo sapiens, UniProt P30530)
T1 construct: endogenous in cells; host or cells: HeLa cells
T1 sequence (P30530 26-894): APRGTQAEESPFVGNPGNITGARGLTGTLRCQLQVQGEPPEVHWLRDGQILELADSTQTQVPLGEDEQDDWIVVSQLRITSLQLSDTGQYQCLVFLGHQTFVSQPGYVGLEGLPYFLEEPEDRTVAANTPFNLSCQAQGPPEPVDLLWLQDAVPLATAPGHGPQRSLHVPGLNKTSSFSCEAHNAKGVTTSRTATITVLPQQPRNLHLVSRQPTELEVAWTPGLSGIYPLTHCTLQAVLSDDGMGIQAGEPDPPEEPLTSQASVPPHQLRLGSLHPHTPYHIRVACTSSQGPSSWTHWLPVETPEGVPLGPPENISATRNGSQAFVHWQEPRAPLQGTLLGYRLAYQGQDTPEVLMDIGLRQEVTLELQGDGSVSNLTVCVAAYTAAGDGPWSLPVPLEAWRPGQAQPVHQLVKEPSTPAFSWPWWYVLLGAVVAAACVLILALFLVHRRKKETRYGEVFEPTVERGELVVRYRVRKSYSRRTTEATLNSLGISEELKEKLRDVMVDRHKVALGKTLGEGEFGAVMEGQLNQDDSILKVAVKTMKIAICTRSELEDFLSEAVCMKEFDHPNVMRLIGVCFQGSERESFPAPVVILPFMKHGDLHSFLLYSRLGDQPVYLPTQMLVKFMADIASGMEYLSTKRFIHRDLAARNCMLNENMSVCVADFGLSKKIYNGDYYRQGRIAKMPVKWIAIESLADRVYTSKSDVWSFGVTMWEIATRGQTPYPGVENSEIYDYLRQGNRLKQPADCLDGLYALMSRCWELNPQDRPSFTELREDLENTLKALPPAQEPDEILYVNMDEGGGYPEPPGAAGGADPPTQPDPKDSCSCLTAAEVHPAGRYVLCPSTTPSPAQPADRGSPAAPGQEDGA
Experiment: Phospho-Akt in-cell Western assay (inhibition of Axl activity)
Type: cell-based
Procedure, shortened: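 HeLa cells on poly-L-lysine, starved 24 h in 0.5% FCS DMEM with Axl/Fc 500 ng/mL, pre-treated with compound 1 h at 37° C. Axl stimulated 5 min by anti-Axl/anti-mouse antibody cross-linking. Fixed cells probed with anti-phospho-Akt and HRP secondary, chemiluminescence read.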

[1] = inhibition of Axl activity, Table 1
[2] = inhibition of Axl activity, phospho-Akt in-cell Western assay, Table 1
[3] = Table 5, Hela cells, Axl antibody cross-linking stimulation, phospho-Akt chemiluminescence
[4] = Table 2, Hela cells, Axl antibody cross-linking stimulation, phospho-Akt chemiluminescence

## Cc1ccccc1C(=O)n1nc(Nc2cccc(O)c2)nc1N [(Ia-6), 5-amino-3-[3-(hydroxy)phenylamino]-1-(2-(methyl)phenyl)carbonyl-1H-1,2,4-triazole]
[1]
  IC50: > 20 µM

## Nc1nc(Nc2ccc3c(c2)OCCO3)nn1C(=O)c1cccc(F)c1 [compound 105, 5-amino-3-(1,4-benzodioxan-6-yl)amino-1-(3-(fluoro)phenyl)carbonyl-1H-1,2,4-triazole]
[1]
  IC50: > 20 µM

## CC(=O)Oc1ccccc1C(=O)n1nc(Nc2ccc3c(c2)OCCO3)nc1N [compound 119, 1-(2-(acetoxy)phenyl)carbonyl-5-amino-3-(1,4-benzodioxan-6-yl)amino-1H-1,2,4-triazole]
[1]
  IC50: 1 to 10 µM

## Nc1nc(Nc2ccccc2)nn1C(=O)c1ccc(N2CCOCC2)cc1 [compound 335, 5-amino-1-(4-(morpholin-4-yl)phenyl)carbonyl-3-(phenylamino)-1H-1,2,4-triazole]
[2]
  IC50: > 20 µM

## CCOc1cccc(C(=O)n2nc(Nc3ccc4c(c3)OCCO4)nc2N)c1 [compound 128, 5-amino-1-(3-(ethoxy)phenyl)carbonyl-3-(1,4-benzodioxan-6-yl)amino-1H-1,2,4-triazole]
[1]
  IC50: > 20 µM

## Nc1ccc(C(=O)n2nc(Nc3ccc4c(c3)OCCO4)nc2N)cc1 [compound 243, 5-amino-1-(4-aminophenyl)carbonyl-3-(1,4-benzodioxan-6-yl)amino-1H-1,2,4-triazole]
[1]
  IC50: 1 to 10 µM

## CC(C)(C)Oc1ccc(C(=O)n2nc(Nc3ccc(OCCCN4CCCC4)cc3)nc2N)cc1 [compound #15, 5-Amino-3-[4-[3-(pyrrolidin-1-yl)propoxy]phenylamino]-1-(4-(tert-butoxy)phenyl)carbonyl-1H-1,2,4-triazole]
[2]
  IC50: < 1 µM

## Nc1nc(Nc2ccc3c(c2)OCCO3)nn1C(=O)c1ccc(OCCN2CCOCC2)cc1 [compound 149, 5-amino-3-(1,4-benzodioxan-6-yl)amino-1-[4-[2-(morpholin-4-yl)ethoxy]phenyl]carbonyl-1H-1,2,4-triazole]
[1]
  IC50: 1 to 10 µM

## Cc1cccc(C(=O)n2nc(Nc3ccc4nn(C)cc4c3)nc2N)c1 [compound 222, 5-amino-3-(2-methyl-2H-indazol-5yl)amino-1-(3-methylphenyl)carbonyl-1H-1,2,4-triazole]
[3]
  IC50: > 20 µM

## Cc1cccc(C(=O)n2nc(Nc3ccc(OCCN4CCCCC4)cc3)nc2N)c1 [compound 59, 5-amino-1-(3-(methyl)phenyl)carbonyl-3-[4-[2-(piperidin-1-yl)ethoxy]phenylamino]-1H-1,2,4-triazole]
[1]
  IC50: < 1 µM

## CCOC(=O)c1cc2cc(Nc3nc(N)n(C(=O)c4cccc(OC(C)C)c4)n3)ccc2o1 [compound 103, 5-amino-3-(2-(ethoxycarbonyl)benzofuran-5-yl)amino-1-(3-(iso-propoxy)phenyl)carbonyl-1H-1,2,4-triazole]
[3]
  IC50: > 20 µM

## Cc1ccc(C(=O)n2nc(N)nc2Nc2ccc3c(c2)OCCO3)cc1C [compound 236, 3-amino-1-(3,4-dimethylphenyl)carbonyl-5-(1,4-benzodioxan-6-yl)amino-1H-1,2,4-triazole]
[4]
  IC50: > 20 µM

## Nc1nc(Nc2ccc(OCCN3CCCC3=O)cc2)nn1C(=O)c1cccc(N2CCOCC2)c1 [compound 340, 5-amino-1-(3-(morpholin-4-yl)phenyl)carbonyl-3-[4-[2-(pyrrolidin-2-on-1-yl)ethoxy]phenylamino]-1H-1,2,4-triazole]
[2]
  IC50: 1 to 10 µM

## Nc1nc(Nc2ccc(OCCN3CCCC3)cc2)nn1C(=O)c1ccc2c(c1)OCO2 [compound #16, 5-Amino-1-(1,3-benzodioxol-5-yl)carbonyl-3-[4-[2-(pyrrolidin-1-yl)ethoxy]phenylamino]-1H-1,2,4-triazole]
[2]
  IC50: < 1 µM

## CSc1ccc(C(=O)n2nc(N)nc2Nc2ccc3c(c2)OCCO3)cc1 [compound 238, 3-amino-5-(1,4-benzodioxan-6-yl)amino-1-(4-thiomethylphenyl)carbonyl-1H-1,2,4-triazole]
[4]
  IC50: > 20 µM

## CC(=O)Oc1cccc(C(=O)n2nc(Nc3ccc4c(c3)OCCO4)nc2N)c1 [compound 110, 1-(3-(Acetoxy)phenyl)carbonyl-5-amino-3-(1,4-benzodioxan-6-yl)amino-1H-1,2,4-triazole]
[1]
  IC50: 1 to 10 µM

## CC(C)(C)c1ccc(C(=O)n2nc(Nc3ccc(OCCN4CCCCCC4)cc3)nc2N)cc1 [compound 320, 5-amino-1-(4-(tert-butyl)phenyl)carbonyl-3-[4-[2-(azepan-1-yl)ethoxy]phenylamino]-1H-1,2,4-triazole]
[2]
  IC50: < 1 µM

## Nc1nc(Nc2ccc(OCCn3ccnc3)cc2)n(C(=O)c2ccc3sccc3c2)n1 [compound 378, 3-amino-1-(benzo[b]thiophen-5-yl)carbonyl-5-[4-[2-(imidazol-1-yl)ethoxy]phenylamino]-1H-1,2,4-triazole]
Table 4, Hela cells, Axl antibody cross-linking stimulation, phospho-Akt chemiluminescence
  IC50: < 1 µM

## CC(C)(C)Oc1ccc(C(=O)n2nc(Nc3ccc(OCCN4CC[C@H](F)C4)cc3)nc2N)cc1 [compound 384, 5-amino-1-(4-(tert-butoxy)phenyl)carbonyl-3-[4-[2-((S)-3-fluoropyrrolidin-1-yl)ethoxy]phenylamino]-1H-1,2,4-triazole]
[2]
  IC50: < 1 µM

## Nc1nc(Nc2ccc(OCCN3CCCC3)c(F)c2)nn1C(=O)c1ccc(-c2csnn2)cc1 [compound 306, 5-amino-1-(4-(1,2,3-thiadiazol-4-yl)phenyl)carbonyl-3-[3-fluoro-4-[2-(pyrrolidin-1-yl)ethoxy]phenylamino]-1H-1,2,4-triazole]
[2]
  IC50: < 1 µM

## COc1cc(Nc2nc(N)n(C(=O)c3ccc(-c4csnn4)cc3)n2)ccc1OCCN1CCCC1 [compound 319, 5-amino-1-(4-(1,2,3-thiadiazol-4-yl)phenyl)carbonyl-3-[3-methoxy-4-[2-(pyrrolidin-1-yl)ethoxy]phenylamino]-1H-1,2,4-triazole]
[2]
  IC50: < 1 µM

## CC(C)(C)Oc1ccc(C(=O)n2nc(Nc3ccc(OCCN4CCCC4)c(F)c3)nc2N)cc1 [compound 305, 5-amino-1-(4-(tert-butoxy)phenyl)carbonyl-3-[3-fluoro-4-[2-(pyrrolidin-1-yl)ethoxy]phenylamino]-1H-1,2,4-triazole]
[2]
  IC50: < 1 µM

## Cc1ccc(C(=O)n2nc(Nc3cccc(C)c3)nc2N)cc1 [compound 133, 5-amino-3-[3-(methyl)phenylamino]-1-(4-(methyl)phenyl)carbonyl-1H-1,2,4-triazole]
[1]
  IC50: 1 to 10 µM

## Nc1nc(Nc2ccc(OCCN3CCCC3)c(F)c2)nn1C(=O)c1ccccc1 [compound 308, 5-amino-1-(phenyl)carbonyl-3-[3-fluoro-4-[2-(pyrrolidin-1-yl)ethoxy]phenylamino]-1H-1,2,4-triazole]
[2]
  IC50: < 1 µM

## CC(C)(C)OC(=O)NCc1ccc(C(=O)n2nc(Nc3ccc(OCCN4CCCC4)cc3)nc2N)cc1 [compound 278, 5-amino-1-[4-((tert-butoxycarbonyl)aminomethyl)phenyl]carbonyl-3-[4-[2-(pyrrolidin-1-yl)ethoxy]phenylamino]-1H-1,2,4-triazole]
[2]
  IC50: < 1 µM

## Cc1ccc(C(=O)n2nc(Nc3ccccc3)nc2N)cc1 [compound 137, 5-amino-1-(4-(methyl)phenyl)carbonyl-3-phenylamino-1H-1,2,4-triazole]
[1]
  IC50: > 20 µM

## Cc1cccc(C(=O)n2nc(Nc3cccc(OCC(=O)O)c3)nc2N)c1 [compound 224, 5-amino-3-(3-hydroxycarbonylmethoxy)phenylamino-1-(3-methylphenyl)carbonyl-1H-1,2,4-triazole]
[1]
  IC50: > 20 µM

## CC(C)(C)Oc1ccc(C(=O)n2nc(NC3C4C=CC(C4)C3C(N)=O)nc2N)cc1 (stereo not shown) [compound 346, 5-amino-1-(4-(tert-butoxy)phenyl)carbonyl-3-[(5-(aminocarbonyl)bicyclo[2.2.1]hept-2-en-6-yl)amino]-1H-1,2,4-triazole]
[3]
  IC50: > 20 µM

## COC(=O)COc1ccc(C(=O)n2nc(Nc3ccc4c(c3)OCCO4)nc2N)cc1 [compound 126, 5-amino-3-(1,4-benzodioxan-6-yl)amino-1-[4-(methoxycarbonylmethoxy)phenyl)carbonyl-1H-1,2,4-triazole]
[1]
  IC50: 1 to 10 µM

## Cc1cccc(C(=O)n2nc(Nc3ccc4ncsc4c3)nc2N)c1 [compound 250, 5-amino-3-(benzothiazol-6-yl)amino-1-(3-methylphenyl)carbonyl-1H-1,2,4-triazole]
[3]
  IC50: 1 to 10 µM

## CC(C)Oc1ccc(Nc2nc(N)n(C(=O)c3ccc(OCCN4CCCCC4)cc3)n2)cc1 [compound 77, 5-amino-3-[4-(iso-propoxy)phenylamino]-1-[4-[2-(piperidin-1-yl)ethoxy]phenyl)carbonyl-1H-1,2,4-triazole]
[1]
  IC50: 1 to 10 µM
